According to patent US11554151B2, “Composition containing Perilla frutescens fermented extract for prevention, alleviation, or treatment of sleep disorder” (AJOU UNIVERSITY INDUSTRY-ACADEMIC COOPERATION FOUNDATION, priority 2017, dated 2023):

Tested on: ICR mice
Test: Pentobarbital-induced sleep test (sleep latency and total sleeping time)
Type: in vivo
Conditions: Example 2-1; positive control, 1 mg/kg oral, 30 min before pentobarbital 45 mg/kg i.p.
Protocol: The sleep improvement effects of the Perilla frutescens fermented extract and conventionally sold sedatives were intended to be confirmed from comparison of sleep latency and total sleeping time.
Specifically, 0.9% physiological saline, 10 mg/kg of the Perilla frutescens extract (Perilla-W) or fermented extract thereof (Perilla-B) prepared in [Example 1], and 1 mg/kg of diazepam (Myung In Pharm. Co., Ltd.) were each orally administered to ICR mice (OrientBio). 30 minutes after the administration of the test materials, 45 mg/kg of a nerve stabilizer pentobarbital (HANLIM PHARM. Co., Ltd.) was intraperitoneally administered to induce sleep. After the administration of pentobarbital, the time required to go into deep sleep (sleep latency) and the total sleep maintenance time (total sleeping time) were measured for each test material administration group. Physiological saline and diazepam were used as a control and a positive control, respectively.
Specifically, sleep latency and total sleeping time ere measured in the same manner as in Example <2-1> using 0.9% physiological saline and 10 mg/kg of the Perilla frutescens extract (Perilla-W) or fermented extract thereof (Perilla-B, Perilla-L, and Perilla-S) prepared in [Example 1].

CN1C(=O)CN=C(c2ccccc2)c2cc(Cl)ccc21 [diazepam]
sleep latency: 220 s
